Patent publication US5763464A, “Retroviral agents containing anthranilamide, substituted benzamide and other subunits, and methods of using same” (The United States of America as represented by the …, priority 1995, dated 1998)
Like-named read-outs stand apart in the source and are kept apart here. Each block holds one compound with its values, some of them ahead of it.

How the values were obtained:
[1] = biological target: T1, HIV-1 protease (wild-type, WT) (Human immunodeficiency virus type 1 group M subtype B, UniProt P04585); test: biochemical
T1 construct: purified HIV-1 protease (wild-type, WT)
Procedure: The inhibition constants (Ki) for the compounds of the above examples were determined using purified HIV-1 protease (wild-type, WT) (Tables I, II and III). Ki is an inhibition constant of a given compound as derived by enzyme kinetics. A low Ki represents a high affinity of the compound for the enzyme, i.e., tight binding or low dissociation. Inhibition of the cleavage was assayed using a fluorogenic substrate available from Molecular Probes, Inc., Eugene, Oreg., and described in Kageyama et al., Antimicrob. Agents. Chemother., 37, 272 (1993), and a fluorogenic substrate available from Bachem California, Torrance, Calif., and described in Kageyama et al. (1993), supra. Percent inhibition is the percentage inhibition of an enzyme's activity by a given compound at a given concentration.

[2] = test system: HIV-1 (CEM cells chronically infected with HIV-1); test: Anti-retroviral activity in CEM cells chronically infected with HIV-1, soluble formazan assay; format: cell-based; settings: Human immunodeficiency virus 1, CCRF-CEM
Procedure: Using the soluble formazan assay described by Weislow et al. (J. Nat'l. Cancer Inst., 81, 577-586 (1989)), CEM cells chronically infected with HIV-1 were used to assay the anti-retroviral activity of test compounds described herein. The concentration of compound that inhibits 50% of viral activity (EC50; determined as described in Weislow et al. (1989), supra) and the inhibition constant (Ki, as defined in Example 7) for the compound were determined.

[3] = test system: CEM cells; test: Toxicity (IC50) in CEM cells, soluble formazan assay; settings: Homo sapiens, CCRF-CEM
[4] = Table I, unit inferred, read-out: Ki

Compound: Cc1c(O)cccc1C(=O)N[C@@H](Cc1ccccc1)[C@@H](O)C[C@H](Cc1ccccc1)NC(=O)c1ccccc1NC(=O)OCc1ccccn1 [LL-82, (2S,3S,5S)-2-[N-[(3-hydroxy-2-methylphenyl)carbonyl]amino]-5-[N-[N-[(2-pyridinylmethoxy)carbonyl]anthranilyl]amino]-1,6-diphenyl-3-hydroxy hexane]
EC50 ([2]; Table III): 33 nM
IC50 [3]: 40000 nM
Ki [1]: 0.06 ± 0.018 nM

Compound: O=C(N[C@@H](Cc1ccccc1)[C@H](O)[C@H](O)[C@H](Cc1ccccc1)NC(=O)c1cccc(O)c1)c1cccc(O)c1 [Diol-10]
Ki ([1]; Table I, unit not given): 22/25

Compound: CC(C)(C)OC(=O)N[C@@H](Cc1ccccc1)[C@@H](O)[C@@H](O)[C@H](Cc1ccccc1)NC(=O)c1ccccc1NC(=O)OCc1ccccn1 [LL-70]
Ki ([1]; read-out: Ki): 0.14 nM

Compound: O=C(Nc1ccccc1C(=O)N[C@@H](Cc1ccccc1)C[C@H](O)[C@H](Cc1ccccc1)NC(=O)O[C@H]1CCOC1)OCc1ccccn1 [LL-101, (2S,3S,5S)-5-[N-[N-((2-pyridinylmethoxy)carbonyl)anthranilyl]amino]2-[N-((3-S-(tetrahydrofuranyl)oxy)carbonyl)amino]-1,6-diphenyl-3-hydroxy hexane]
Ki [1]: 0.042 ± 0.007 nM

Compound: CC(C)(C)OC(=O)N[C@@H](Cc1ccccc1)[C@@H](O)[C@@H](O)[C@H](Cc1ccccc1)NC(=O)c1ccccc1NC(=O)OCc1ccccn1 [DN-11]
EC50 ([2]; Table II, read-out: EC50): 490 nM
IC50 [3]: 21000 nM
Ki ([1]; Example 2, read-out: Ki): 0.4 nM
Ki ([1]; Table II, read-out: Ki): 0.45 nM

Compound: Cc1ccccc1C(=O)N[C@@H](Cc1ccccc1)[C@H](O)[C@H](O)[C@H](Cc1ccccc1)NC(=O)c1ccccc1C [Diol-57]
Ki [1, 4]: 8 nM

Compound: O=C(N[C@@H](Cc1ccccc1)[C@H](O)[C@H](O)[C@H](Cc1ccccc1)NC(=O)O[C@H]1CCOC1)O[C@H]1CCOC1 [RS-205]
EC50 ([2]; Table I): 16000 nM
IC50 [3]: > 150000 nM
Ki [1]: 4.6 nM

Compound: O=C(N[C@@H](Cc1ccccc1)[C@H](O)[C@H](O)[C@H](Cc1ccccc1)NC(=O)c1ccccc1)c1ccccc1 [Diol-56]
Ki [1, 4]: 40 nM

Compound: Cc1c(O)cccc1C(=O)N[C@@H](Cc1ccccc1)[C@@H](O)C[C@H](Cc1ccccc1)NC(=O)OC(C)(C)C [RS-208, (2S,3S,5S)-2-[N-[(3-hydroxy-2-methylphenyl)carbonyl]amino]-5-[N-(tert-butyloxycarbonyl)amino]-1,6-diphenyl-3-hydroxy hexane]
EC50 ([2]; Table I, read-out: EC50): 470 nM
IC50 [3]: 23000 nM
Ki [1, 4]: 0.213 nM

Compound: CC(C)C(NC(=O)OCc1ccccn1)C(=O)N[C@@H](Cc1ccccc1)[C@@H](O)[C@@H](O)[C@H](Cc1ccccc1)NC(=O)c1ccccc1NC(=O)OCc1ccccn1 (stereo partly drawn) [LL-73, (2S,3R,4S,5S)-2-[N-(N-(2-pyridinylmethoxy)valinyl)amino]-5-[N-[N-((2-pyridinylmethoxy)carbonyl)anthranilyl]amino]-3,4-dihydroxy-1,6-diphenyl hexane]
EC50 ([2]; Table III): 4 nM
IC50 [3]: 47000 nM

Compound: Cc1c(O)cccc1C(=O)N[C@@H](Cc1ccccc1)C[C@H](O)[C@H](Cc1ccccc1)NC(=O)c1ccccc1NC(=O)OCc1ccccn1 [LL-69]
Ki ([1]; Table II, read-out: Ki): 0.68 nM

Compound: Cc1c(O)cccc1C(=O)N[C@@H](Cc1ccccc1)C[C@H](O)[C@H](Cc1ccccc1)NC(=O)c1cccc(O)c1C [DD-8]
EC50 ([2]; Table I, read-out: EC50): 400 nM
IC50 [3]: 22000 nM
Ki ([1]; read-out: Ki): 0.8 nM

Compound: Cc1c(O)cccc1C(=O)N[C@@H](Cc1ccccc1)[C@H](O)[C@H](O)[C@H](Cc1ccccc1)NC(=O)c1cccc(O)c1C [Diol-52]
EC50 ([2]; Table I): 900 nM
IC50 [3]: 25000 nM
Ki [1, 4]: 1.2 nM

Compound: Nc1ccccc1C(=O)N[C@@H](Cc1ccccc1)C[C@H](O)[C@H](Cc1ccccc1)NC(=O)c1ccccc1N [AN-72]
Ki [1, 4]: 96 nM

Compound: Cc1c(O)cccc1C(=O)N[C@@H](Cc1ccccc1)[C@@H](O)[C@@H](O)[C@H](Cc1ccccc1)NC(=O)O[C@H]1CCOC1 [AN-78]
EC50 ([2]; Table I): 21000 nM
IC50 [3]: > 50000 nM
Ki [1]: 1.43 nM

Compound: Cc1c(O)cccc1C(=O)N[C@@H](Cc1ccccc1)[C@H](O)[C@H](O)[C@H](Cc1ccccc1)NC(=O)O[C@H]1CCOC1 [AN-76]
EC50 ([2]; Table I): 7500 nM
IC50 [3]: > 50000 nM
Ki [1]: 2 nM

Compound: Cc1c(O)cccc1C(=O)N[C@@H](Cc1ccccc1)[C@@H](O)C[C@H](Cc1ccccc1)NC(=O)c1cccc(N)c1 [AN-96, (2S,3S,5S)-2-[N-[(3-hydroxy-2-methylphenyl)carbonyl]amino]-5-[N-(3-aminophenyl)carbonyl]amino-1,6-diphenyl-3-hydroxy hexane]
EC50 ([2]; Table I): 630 to 58000 nM
IC50 [3]: > 100000 nM
Ki [1]: 0.75 nM

Compound: CC(C)(C)OC(=O)N[C@@H](Cc1ccccc1)C[C@H](O)[C@H](Cc1ccccc1)NC(=O)c1ccccc1NC(=O)OCc1ccccn1 [AN-42]
EC50 ([2]; Table II, read-out: EC50): < 1000 nM
IC50 [3]: 23000 nM
Ki ([1]; Table II, read-out: Ki): 0.85 nM

Compound: O=C(Nc1ccccc1C(=O)N[C@@H](Cc1ccccc1)[C@@H](O)[C@@H](O)[C@H](Cc1ccccc1)NC(=O)c1cccc(O)c1)OCc1ccccc1 [DN-3]
Ki ([1]; Table II, read-out: Ki): 5.9 nM

Compound: O=C(N[C@@H](Cc1ccccc1)C[C@H](O)[C@H](Cc1ccccc1)NC(=O)O[C@H]1CCOC1)O[C@H]1CCOC1 [RS-194]
EC50 ([2]; Table I): 6500 nM
IC50 [3]: > 50000 nM
Ki [1]: 1.68 nM

The next lines start with results.

Ki [1, 4]: 3.65 nM
Compound: Cc1c(O)cccc1C(=O)N[C@@H](Cc1ccccc1)[C@@H](O)C[C@H](Cc1ccccc1)NC(=O)c1ccc(O)cc1 [AN-88]

Ki ([1]; Table III, read-out: Ki): 0.76 nM
Compound: O=C(Nc1ccccc1C(=O)N[C@@H](Cc1ccccc1)[C@H](O)[C@H](O)[C@H](Cc1ccccc1)NC(=O)c1cccc(O)c1)OCc1ccccn1 [ND-4]

EC50 ([2]; Table I, read-out: EC50): 630 to 1000 nM
Ki [1, 4]: 0.32 nM
Compound: Cc1c(O)cccc1C(=O)N[C@@H](Cc1ccccc1)[C@@H](O)C[C@H](Cc1ccccc1)NC(=O)O[C@H]1CCOC1 [AN-98]
IC50 [3]: > 100000 nM

EC50 ([2]; Table I, read-out: EC50): 1300 nM
Ki [1, 4]: 0.46 nM
Compound: Cc1c(O)cccc1C(=O)N[C@@H](Cc1ccccc1)[C@@H](O)C[C@H](Cc1ccccc1)NC(=O)OCc1cccnc1 [AN-92, (2S,3S,5S)-2-[N-[(3-hydroxy-2-methylphenyl)carbonyl]amino]-5-[N-[(3-pyridinylmethoxy)carbonyl]amino]-1,6-diphenyl-3-hydroxy hexane]
IC50 [3]: > 100000 nM

Percent inhibition (Ki column) ([1]; Table I, 10μ): 32%
Compound: O=C(N[C@@H](Cc1ccccc1)[C@H](O)[C@H](O)[C@H](Cc1ccccc1)NC(=O)c1ccccc1O)c1ccccc1O [Diol-58]

Ki ([1]; read-out: Ki): 8.4 nM
Compound: CC(C)(C)OC(=O)N[C@@H](Cc1ccccc1)[C@H](O)[C@H](O)[C@H](Cc1ccccc1)NC(=O)OC(C)(C)C [RS-196]

Ki [1, 4]: 8.3 nM
Compound: Cc1c(O)cccc1C(=O)N[C@@H](Cc1ccccc1)[C@H](O)[C@H](O)[C@H](Cc1ccccc1)NC(=O)OC(C)(C)C [RS-198]

EC50 ([2]; Table I, read-out: EC50): 1300 nM
Ki [1, 4]: 0.66 nM
Compound: Cc1c(O)cccc1C(=O)N[C@@H](Cc1ccccc1)[C@@H](O)[C@@H](O)[C@H](Cc1ccccc1)NC(=O)OC(C)(C)C [RS-199]
IC50 [3]: > 50000 nM

Ki ([1]; Table I, unit printed in the line, read-out: Ki): 1500 nM
Compound: COc1ccc(S(=O)(=O)N[C@@H](Cc2ccccc2)C[C@H](O)[C@H](Cc2ccccc2)NC(=O)c2cccc(O)c2C)cc1 [AN-91]

EC50 ([2]; Table II, read-out: EC50): 900 nM
Ki ([1]; Table II, read-out: Ki): 1.77 nM
Compound: O=C(Nc1ccccc1C(=O)N[C@@H](Cc1ccccc1)[C@@H](O)[C@@H](O)[C@H](Cc1ccccc1)NC(=O)c1cccc(O)c1)OCc1ccccn1 [DN-4]
IC50 [3]: 9000 to 28000 nM

Ki [1, 4]: 6.6 nM
Compound: Cc1ccc(O)cc1C(=O)N[C@@H](Cc1ccccc1)C[C@H](O)[C@H](Cc1ccccc1)NC(=O)c1cc(O)ccc1C [RS-201]

Ki [1, 4]: 276 nM
Compound: O=C(N[C@@H](Cc1ccccc1)[C@H](O)[C@H](O)[C@H](Cc1ccccc1)NC(=O)c1ccc(O)cc1)c1ccc(O)cc1 [Diol-51]

Ki [1, 4]: 1.88 nM
Compound: Cc1c(O)cccc1C(=O)N[C@@H](Cc1ccccc1)[C@@H](O)C[C@H](Cc1ccccc1)NC(=O)c1cccc(O)c1 [AN-89]

EC50 ([2]; Table II, read-out: EC50): 1600 nM
Ki ([1]; Table II, read-out: Ki): 1.05 nM
Compound: CC(C)(C)NC(=O)N[C@@H](Cc1ccccc1)C[C@H](O)[C@H](Cc1ccccc1)NC(=O)c1ccccc1NC(=O)OCc1ccccn1 [AN-43]
IC50 [3]: 33000 nM

EC50 ([2]; Table II, read-out: EC50): 490 nM
Ki ([1]; Table II, read-out: Ki): 0.034 nM
Compound: CC(C)C(NC(=O)OCc1ccccn1)C(=O)N[C@@H](Cc1ccccc1)C[C@H](O)[C@H](Cc1ccccc1)NC(=O)c1ccccc1NC(=O)OCc1ccccn1 (some centres unmarked) [LL-68]
IC50 [3]: 22000 nM
